From paper PMC6269653, “Stability and Antioxidant Activity of Semi-synthetic Derivatives of 4-Nerolidylcatechol” (Molecules, 2012)
Marks after values point to notes of the source that are not given here.

Tests used:
[1] = ABTS radical-scavenging activity; assay type: biochemical; details: compounds tested at 250 µM; mean ± standard deviation, n = 3
Experimental: The ABTS assay used herein was based on the method of Re et al. with slight modifications. Substances at concentrations of 250 µM, BHT or BHA were added to dilute ABTS solution and the absorbance at […] was measured. The antioxidant activity was calculated using the equation: % inhibition = 100 × (1 − sample abs/control abs).

[2] = DPPH radical-scavenging activity; assay type: biochemical; details: compounds tested at 250 µM; mean ± standard deviation, n = 3
Experimental: The measurement of the scavenger activity of DPPH• was carried out according to the method of Molineux with modifications. Substances at 250 µM were added, at an equal volume, to the methanol solution of DPPH• ([…]). After 15 min at room temperature, the absorbance was recorded at 517 nm (sample abs). The experiment was repeated three times. BHT, BHA were used as controls. Values denote percentage of DPPH free radical inhibition. The antioxidant activity was calculated using the equation: % inhibition = 100 × (1 − sample abs/control abs).

Brine shrimp assay = assay: Brine shrimp assay; set-up: species or system Artemia franciscana; details: Artemia franciscana (brine shrimp), in vivo; read-out: Toxicity Brine shrimp (Artemia franciscana) (LC50)
Artemia franciscana = assay: Brine shrimp assay; details: in vivo
[3] = test system: 3T3L1 mouse embryonic fibroblast cell line; assay: Cellular antioxidant activity (oxidation of DCFH-DA); assay type: cell-based; set-up: inhibition of the oxidation of DCFH-DA in 3T3L1 cells: concentration or dose not given beside the values; details: over the observation period of 60 min
Experimental: These tests evaluate the reducing effect of a given substance on the radical species formed in situ during these assays leading to a decrease in color versus controls that is measured spectrophotometrically. […] Thus, at a concentration of 250 µM, 4-NC inhibited DPPH• and ABTS+• by 97% and 95%, respectively. Mono-O-substituted 4-NC derivatives 2–5 inhibited ABTS+• by 89–93%. […] The antioxidant activity was also evaluated in mouse embryonic 3T3L1 fibroblasts. In this assay DCFH-DA (2',7'-dichlorofluorescein diacetate) is hydrolyzed by intracellular esterases and then oxidized by reactive oxygen species (ROS) to the fluorescent compound 2'-7'-DCF. An active antioxidant substance can inhibit the transformation of fatty acids to fatty acid hydroperoxides in the cell membranes and thereby inhibit the oxidation of DCFH-DA.
The antioxidant activity of 4-NC and semi-synthetic derivatives of 4-NC was evaluated on the 1st and 30th days after dissolving the substances in DMSO at a concentration of 10 mM and storage in a freezer at −20 °C. This experiment permitted the evaluation of the relative stability of the antioxidant activity of 4-NC, derivatives of 4-NC, BHT and BHA. Thus, cellular antioxidants were evaluated using the mouse embryonic fibroblast 3T3L1 cell line. […] The presence of mono-O or di-O,O substituent groups in the 4-NC derivatives can confer stability relative to 4-NC. Such chemical stability is highly desirable when contemplating the use of such substances in cosmetic and pharmaceutical formulations and foods. Here, 4-NC dissolved in DMSO lost more than 80% of its antioxidant activity after 30 days in the freezer.
Intracellular ROS production was detected using the non-fluorescent cell permeating compound, 2'7'-dichlorofluorescein diacetate (DCF-DA), as described by Wolfe and Liu. DCF-DA is hydrolyzed by intracellular esterases and then oxidized by hydroperoxides into the fluorescent compound, 2'-7'-DCF. 3T3-L1 cells were seeded at a density of 6 × 10^4 cells/well in a 96-well microplate in 100 μL of growth medium. 24 h after seeding, the growth medium was removed and the wells were washed with PBS. Then, a 10 μM solution of DCFH-DA dissolved in Hank’s buffer (100 μL) was added to wells and incubated for 30 min at 37 °C and 5% CO2. The cells were washed first with PBS (100 μL) then EEP (100 µL) and samples having different concentrations were added. The fluorescence was immediately measured at an excitation wavelength of 485 nm and emission wavelength of 520 nm over 60 min at 5 min intervals. Controls with/without DCFH-DA were prepared and subjected to analogous procedures. Quercetin, BHA and BHT were used as positive controls of antioxidant activity.

[4] = test system: human leukemia cells (HL-60 and CEM); set-up: method as in ref 1 = [1]; 1. Pinto A.C.S. Pessoa C.O. Costa-Lotufo L.V. Moraes M.O. Moraes M.E.A. Cavalcanti B.C. Nunomura S.M. Pohlit A.M. In vitro cytotoxicity of Pothomorphe peltata (L.) Miquel (Piperaceae), isolated 4-nero; details: cited from earlier work
Plasmodium berghei = details: oral doses of 1–10 mg/kg/day (2.5–25 µmol/kg/day), 4-day suppressive test; cited from earlier work

C=CC(C)(CC/C=C(\C)CCC=C(C)C)c1ccc(OC(C)=O)c(OC(C)=O)c1 (stereo not shown) [Compound 7, O,O-diacetyl-4-nerolidylcatechol]
ABTS (%) percentage of inhibition [1]: 8.60 ± 0.10 ^b %
DPPH• (%) percentage of inhibition [2]: 6.36 ± 1.15 ^c %
LC50 (Brine shrimp assay): 83 µM
cytotoxic activity against Artemia franciscana in the brine shrimp assay (Artemia franciscana): moderately toxic
inhibition of the oxidation of DCFH-DA in 3T3L1 cells [3]: ≥ 20%
IC50 [4]: 15.5 to 15.6 µM
in vivo inhibitory activity in P. berghei-infected mice (Plasmodium berghei): significant in vivo inhibitory activity
